For 42 molecules, IC50 results are on record in US20170326125A1, “MULTISUBSTITUTED AROMATIC COMPOUNDS AS INHIBITORS OF THROMBIN” (VERSEON CORPORATION, priority 2016, published 2017).

The structures appear in SMILES notation. Bounds are passed on as bounds.

The target in this assay is T1, Human thrombin (Homo sapiens, UniProt P00734).
T1 construct: purchased Haematologic Technologies Inc
The experiment in a line: Inhibition of the protease activity of thrombin (chromogenic substrate S-2238). The settings on record: inhibition of the protease activity of thrombin. The class given is biochemical.
Turning to `Cc1ccccc1C(=O)n1nc(-c2ccccn2)cc1NCc1ccccc1` [Cmpd 260, N-benzyl-1-[(2-methylphenyl)carbonyl]-3-(pyridin-2-yl)-1H-pyrazol-5-amine], the half-maximal inhibitory concentration (IC50) was more than 1000 nM.

`COc1cccc(C(=O)n2nc(-c3ccccn3)nc2NCc2ccccc2)c1` [Cmpd 261, N-benzyl-1-[(3-methoxyphenyl)carbonyl]-3-(pyridin-2-yl)-1H-1,2,4-triazol-5-amine] gave an IC50 of less than 100 nM.

`O=C(c1ccc(Cl)cc1)n1nc(-c2ccccn2)nc1NCc1ccccc1` [Cmpd 262, N-benzyl-1-[(4-chlorophenyl)carbonyl]-3-(pyridin-2-yl)-1H-1,2,4-triazol-5-amine]: the half-maximal inhibitory concentration (IC50) was less than 100 nM.

As to `O=C(c1ccc(Cl)cc1)n1nc(-c2ccncc2)nc1NCc1ccccc1` [Cmpd 263, N-benzyl-1-[(4-chlorophenyl)carbonyl]-3-(pyridin-4-yl)-1H-1,2,4-triazol-5-amine], the IC50 is less than 100 nM.

Turning to `COc1ccc(C(=O)n2nc(-c3ccccn3)nc2NCc2ccccc2)c(C)c1` [Cmpd 264, N-benzyl-1-[(4-methoxy-2-methylphenyl)carbonyl]-3-(pyridin-2-yl)-1H-1,2,4-triazol-5-amine], the concentration for half-maximal inhibition (IC50) was less than 100 nM.

Regarding `COc1ccc(C(=O)n2nc(-c3ccccn3)nc2NCc2ccccc2)cc1` [Cmpd 265, N-benzyl-1-[(4-methoxyphenyl)carbonyl]-3-(pyridin-2-yl)-1H-1,2,4-triazol-5-amine], the half-inhibitory concentration (IC50) is less than 100 nM.

With `O=C(c1ccco1)n1nc(-c2ccncc2)nc1NCc1ccccc1` [Cmpd 266, N-benzyl-1-[(furan-2-yl)carbonyl]-3-(pyridin-4-yl)-1H-1,2,4-triazol-5-amine], the IC50 is less than 100 nM.

Regarding `O=C(c1ccoc1)n1nc(-c2ccccn2)nc1NCc1ccccc1` [Cmpd 267, N-benzyl-1-[(furan-3-yl)carbonyl]-3-(pyridin-2-yl)-1H-1,2,4-triazol-5-amine], the half-inhibitory concentration (IC50) was less than 100 nM.

The molecule `O=C(c1ccoc1)n1nc(-c2ccncc2)nc1NCc1ccccc1` [Cmpd 268, N-benzyl-1-[(furan-3-yl)carbonyl]-3-(pyridin-4-yl)-1H-1,2,4-triazol-5-amine] had a half-inhibitory concentration (IC50) of less than 100 nM.

`O=C(c1cccc2ccccc12)n1nc(-c2ccccn2)nc1NCc1ccccc1` [Cmpd 269, N-benzyl-1-[(naphthalen-1-yl)carbonyl]-3-(pyridin-2-yl)-1H-1,2,4-triazol-5-amine]: the IC50 was less than 100 nM.

As to `O=C(c1cccc2ccccc12)n1nc(-c2ccccn2)cc1NCc1ccccc1` [Cmpd 270, N-benzyl-1-[(naphthalen-1-yl)carbonyl]-3-(pyridin-2-yl)-1H-pyrazol-5-amine], the IC50 was more than 1000 nM.

With `O=C(c1ccc2ccccc2c1)n1nc(-c2ccccn2)nc1NCc1ccccc1` [Cmpd 271, N-benzyl-1-[(naphthalen-2-yl)carbonyl]-3-(pyridin-2-yl)-1H-1,2,4-triazol-5-amine], the half-maximal inhibitory concentration (IC50) lay in the range of 100 to 1000 nM.

For `O=C(c1ccc2ccccc2c1)n1nc(-c2ccccn2)cc1NCc1ccccc1` [Cmpd 272, N-benzyl-1-[(naphthalen-2-yl)carbonyl]-3-(pyridin-2-yl)-1H-pyrazol-5-amine], the concentration for half-maximal inhibition (IC50) is more than 1000 nM.

For `CN(C)c1ccccc1C(=O)n1nc(-c2ccccn2)nc1NCc1ccccc1` [Cmpd 273, N-benzyl-1-[2-(dimethylamino)phenyl]carbonyl-3-(pyridin-2-yl)-1H-1,2,4-triazol-5-amine], the IC50 is more than 1000 nM.

In turn, `CC(C)c1ccccc1C(=O)n1nc(-c2ccccn2)nc1NCc1ccccc1` [Cmpd 275, N-benzyl-1-[2-(propan-2-yl)phenyl]carbonyl-3-(pyridin-2-yl)-1H-1,2,4-triazol-5-amine] displayed a concentration for half-maximal inhibition (IC50) of more than 1000 nM.

For the molecule `CC(C)c1ccccc1C(=O)n1nc(-c2ccccn2)cc1NCc1ccccc1` [Cmpd 276, N-benzyl-1-[2-(propan-2-yl)phenyl]carbonyl-3-(pyridin-2-yl)-1H-pyrazol-5-amine], the IC50 is more than 1000 nM.

`O=C(c1ccccc1F)n1nc(-c2ccccc2F)cc1NCc1ccccc1` [Cmpd 277, N-benzyl-3-(2-fluorophenyl)-1-[(2-fluorophenyl)carbonyl]-1H-pyrazol-5-amine] yielded a half-inhibitory concentration (IC50) of 100 to 1000 nM.

In the case of `COc1ccccc1C(=O)n1nc(-c2ccccc2F)cc1NCc1ccccc1` [Cmpd 278, N-benzyl-3-(2-fluorophenyl)-1-[(2-methoxyphenyl)carbonyl]-1H-pyrazol-5-amine], the IC50 was more than 1000 nM.

For the molecule `O=C(c1ccsc1)n1nc(-c2ccccc2F)cc1NCc1ccccc1` [Cmpd 279, N-benzyl-3-(2-fluorophenyl)-1-[(thiophen-3-yl)carbonyl]-1H-pyrazol-5-amine], the IC50 was more than 1000 nM.

`COc1ccccc1C(=O)n1nc(-c2ccco2)nc1NCc1ccccc1` [Cmpd 280, N-benzyl-3-(furan-2-yl)-1-[(2-methoxyphenyl)carbonyl]-1H-1,2,4-triazol-5-amine] had an IC50 of less than 100 nM.

Take `c1ccc(CNc2nc(-c3ccco3)n[nH]2)cc1` [Cmpd 281, N-benzyl-3-(furan-2-yl)-1H-1,2,4-triazol-5-amine]: the half-maximal inhibitory concentration (IC50) is more than 1000 nM.

In the case of `O=C(c1cccs1)n1nc(-c2ccccn2)nc1NCc1ccccc1` [Cmpd 282, N-benzyl-3-(pyridin-2-yl)-1-[(thiophen-2-yl)carbonyl]-1H-1,2,4-triazol-5-amine], the IC50 was less than 100 nM.

For `O=C(c1ccsc1)n1nc(-c2ccccn2)nc1NCc1ccccc1` [Cmpd 283, N-benzyl-3-(pyridin-2-yl)-1-[(thiophen-3-yl)carbonyl]-1H-1,2,4-triazol-5-amine], the IC50 is less than 100 nM.

As to `O=C(c1ccsc1)n1nc(-c2ccccn2)cc1NCc1ccccc1` [Cmpd 284, N-benzyl-3-(pyridin-2-yl)-1-[(thiophen-3-yl)carbonyl]-1H-pyrazol-5-amine], the IC50 was less than 100 nM.

On to `O=C(c1ccccc1OC(F)(F)F)n1nc(-c2ccccn2)nc1NCc1ccccc1` [Cmpd 285, N-benzyl-3-(pyridin-2-yl)-1-[2-(trifluoromethoxy)phenyl]carbonyl-1H-1,2,4-triazol-5-amine], for which the half-inhibitory concentration (IC50) is less than 100 nM.

As for `O=C(c1ccccc1C(F)(F)F)n1nc(-c2ccccn2)nc1NCc1ccccc1` [Cmpd 286, N-benzyl-3-(pyridin-2-yl)-1-[2-(trifluoromethyl)phenyl]carbonyl-1H-1,2,4-triazol-5-amine], the IC50 is more than 1000 nM.

Molecule `c1ccc(CNc2nc(-c3cccnc3)n[nH]2)cc1` [Cmpd 287, N-benzyl-3-(pyridin-3-yl)-1H-1,2,4-triazol-5-amine] came in with a half-maximal inhibitory concentration (IC50) of more than 1000 nM.

`O=C(c1cccs1)n1nc(-c2ccncc2)nc1NCc1ccccc1` [Cmpd 288, N-benzyl-3-(pyridin-4-yl)-1-[(thiophen-2-yl)carbonyl]-1H-1,2,4-triazol-5-amine] yielded an IC50 of less than 100 nM.

`O=C(c1ccsc1)n1nc(-c2ccncc2)nc1NCc1ccccc1` [Cmpd 289, N-benzyl-3-(pyridin-4-yl)-1-[(thiophen-3-yl)carbonyl]-1H-1,2,4-triazol-5-amine] registered a half-inhibitory concentration (IC50) of less than 100 nM.

Regarding `c1ccc(CNc2nc(-c3ccncc3)n[nH]2)cc1` [Cmpd 290, N-benzyl-3-(pyridin-4-yl)-1H-1,2,4-triazol-5-amine], the IC50 was more than 1000 nM.

The molecule `O=C(c1ccsc1)n1nc(-c2cccs2)nc1NCc1ccccc1` [Cmpd 291, N-benzyl-3-(thiophen-2-yl)-1-[(thiophen-3-yl)carbonyl]-1H-1,2,4-triazol-5-amine] came in with an IC50 of 100 to 1000 nM.

In the case of `COc1ccccc1C(=O)N(Cc1ccccc1)c1cc(-c2ccccc2F)n[nH]1` [Cmpd 292, N-benzyl-N-[3-(2-fluorophenyl)-1H-pyrazol-5-yl]-2-methoxybenzamide], the half-inhibitory concentration (IC50) was more than 1000 nM.

In turn, `CCN(C)C(=O)c1cc(-c2ccccn2)nn1CCc1ccc(F)cc1` [Cmpd 293, N-ethyl-1-[2-(4-fluorophenyl)ethyl]-N-methyl-3-(pyridin-2-yl)-1H-pyrazole-5-carboxamide] gave an IC50 of more than 1000 nM.

`CCN(C)C(=O)c1cc(-c2ccccn2)n(CCc2ccc(F)cc2)n1` [Cmpd 294, N-ethyl-1-[2-(4-fluorophenyl)ethyl]-N-methyl-5-(pyridin-2-yl)-1H-pyrazole-3-carboxamide]: the concentration for half-maximal inhibition (IC50) was more than 1000 nM.

In turn, `CCNC(=O)c1cn(-c2ccccn2)nc1NCc1ccc(F)cc1` [Cmpd 295, N-ethyl-3-[(4-fluorophenyl)methyl]amino-1-(pyridin-2-yl)-1H-pyrazole-4-carboxamide] came in with an IC50 of more than 1000 nM.

`CCNC(=O)n1nc(-c2cccnc2)nc1NCc1ccc(F)cc1` [Cmpd 296, N-ethyl-5-[(4-fluorophenyl)methyl]amino-3-(pyridin-3-yl)-1H-1,2,4-triazole-1-carboxamide] registered an IC50 of more than 1000 nM.

In the case of `CCN(C)C(=O)n1nc(-c2cccnc2)nc1NCc1ccc(F)cc1` [Cmpd 297, N-ethyl-5-[(4-fluorophenyl)methyl]amino-N-methyl-3-(pyridin-3-yl)-1H-1,2,4-triazole-1-carboxamide], the IC50 was more than 1000 nM.

For `O=C(Oc1ccccc1)n1nc(-c2cccnc2)nc1NCc1ccc(F)cc1` [Cmpd 298, phenyl 5-[(4-fluorophenyl)methyl]amino-3-(pyridin-3-yl)-1H-1,2,4-triazole-1-carboxylate], the half-inhibitory concentration (IC50) was less than 100 nM.

Molecule `CC(C)OC(=O)n1nc(-c2cccnc2)nc1NCc1ccc(F)cc1` [Cmpd 299, propan-2-yl 5-[(4-fluorophenyl)methyl]amino-3-(pyridin-3-yl)-1H-1,2,4-triazole-1-carboxylate] showed a half-inhibitory concentration (IC50) of more than 1000 nM.

As for `CC(C)(C)OC(=O)n1nc(-c2cccnc2)nc1NCc1ccc(F)cc1` [Cmpd 300, tert-butyl 5-[(4-fluorophenyl)methyl]amino-3-(pyridin-3-yl)-1H-1,2,4-triazole-1-carboxylate], the half-inhibitory concentration (IC50) is more than 1000 nM.

As for `CC(C)(C)OC(=O)Nc1ccccc1C(=O)n1nc(-c2ccccn2)nc1NCc1ccccc1` [Cmpd 301, tert-butyl N-(2-[5-(benzylamino)-3-(pyridin-2-yl)-1H-1,2,4-triazol-1-yl]carbonylphenyl)carbamate], the IC50 was more than 1000 nM.

Take `CC(=O)c1cn(-c2ccccc2)nc1N(Cc1ccc(F)cc1)C(=O)OC(C)(C)C` [Cmpd 302, tert-butyl N-(4-acetyl-1-phenyl-1H-pyrazol-3-yl)-N-[(4-fluorophenyl)methyl]carbamate]: the half-inhibitory concentration (IC50) is more than 1000 nM.
